Assay results reported in patent US20250375475A1 (priority 2024, published 2025).

How the values were obtained:
[1] = natural zinc, blood to brain across the BBB; cited from earlier work
[2] = system: GFAP
[3] = system: CD206; assay: CD206 expression (FIG. 5)
[4] = system: astroglia; conditions: FIG. 2
[5] = system: circulating leukocytes; assay: Absolute number of circulating leukocytes (FIG. 3); conditions: rodents
[6] = system: microglia; assay: Reactive oxygen species in microglia (FIG. 6)
[7] = system: microglia/macrophages; conditions: FIG. 7; LPS-lesioned rats

[Zn] [zinc]
zinc in the blood taken up by brain tissues [1]: 2-3%

^64Zn L-Aspartate
GFAP in blood ([2]; FIG. 1A, blood): significant reduction
GFAP in the brain and periphery ([2]; FIG. 1B, brain and periphery): significant reduction
CD206 expression [3]: reduction
inflammation as evidenced by astroglia [4]: lowered the inflammation significantly
absolute number of circulating leukocytes [5]: normalization
reactive oxygen species in microglia [6]: reduction
oxidative stress as indicated by metabolic characteristics of microglia/macrophages [7]: significantly reduced oxidative stress
